Molecules are shown by their SMILES. Like-named read-outs stand apart in the source and are kept apart here.

Experimental findings from patent US7923465B2, “Cannabinoid receptor ligands, pharmaceutical compositions containing them, and process for their preparation” (priority 2005, dated 2011) are described below.

One data set deals with hCB2 (Homo sapiens, UniProt P34972). The data set is described as follows: In vitro binding assay using hCB2-CHO membranes, [3H]-CP-55,940 displacement (Protocol IV). The settings on record: 1 h, read-out: % Displacement Protocol IV. The arrangement: expressed in transfected cells; host or cells: CHO (hCB2-CHO, generated in-house). In short, it runs like this:
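Compounds were tested at a single 300 nM final concentration for displacing 0.75 nM [3H]-CP-55,940 from hCB2-CHO membranes (1 h, 30 °C, 50 mM Tris pH 7.4, 5 mM MgCl2, 1 mM EDTA, 0.1% BSA). Filter-bound radioactivity was counted, with 0.5 μM unlabelled CP-55,940 for nonspecific binding; results are % displacement.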

Data set [1] deals with T1, CB1 (Rattus norvegicus, UniProt P20272). The data set is described as follows: GTPγS binding assay, CB1 functional assay in rat cerebellar membrane (Protocol VIII). Type of data set: biochemical. Details: 10 μg rat cerebellum membrane; from tissue; host or cells: rat cerebellum membrane, prepared in-house. As to the method:
VIII. Protocol for GTPγS Binding Assay (CB1 Functional Assay in Rat Cerebellar Membrane)
In this GTPγS binding assay, total, basal and nonspecific binding were determined. See Griffin G., Atkinson P. J., Showalter V. M., Martin B. R. and Abood M. E., “Evaluation of cannabinoid receptor agonists and antagonists using the Guanosine-5′-O-(3-(^35S)thio)-triphosphate binding assay in rat cerebellar membranes,” J Pharmacol Exp Ther 285: 553-560, 1998. Three wells for total binding, three wells for basal binding, and three wells for nonspecific binding at 0.2 nM concentration of radioligand were used. Basal binding was defined by 50 μM GDP (Guanosine diphosphate) and non-specific binding was defined by 10 μM unlabeled GTPγS. 10 μg rat cerebellum membrane, 50 μM of GDP, WIN-55212-2 or test compound (1 μM or 300 nM), 10 μM unlabeled GTPγs, and 0.2 nM of [^35S]GTPγS were added into a 96 well plate and the final volume of the reaction mixture was made with GTPγS buffer (50 mM Tris, 3 mM anhydrous MgCl2, 0.2 mM EGTA and 100 mM NaCl pH 7.4) to 200 μl. The plates were incubated at 30° C. for 1 hour. Then the reaction was stopped by filtration using a Whatman GF/B-96 microfilter plate. Three washings were given using Tris-HCl. The radioactivity bound to the brain membrane was retained on the filter disks to which scintillation fluid was added (Microscint PS). Then plates were read for radioactive counts using a Beta Liquid Scintillation Counter (Packard Instruments, Ill., USA).
The rat cerebellar brain membrane was prepared as follow: • 1. Sacrifice the rat and take out the whole brain and separate cerebellum as fast as possible and keep it on ice. • 2. Take the weight of the cerebellum and homogenize in 30 ml of homogenizing buffer (50 mM Tris-HCL containing 1 mM EDTA and 5% sucrose, pH 7.5) using homogenizer in cold condition. • 3. Centrifuge the homogenized cerebellum at 18000 rpm (38000 g) for 15 min at 4° C. • 4. Resuspend the pellet in 5 ml 50 mM Tris-HCL containing 1 mM EDTA and keep it on ice for 30 min. • 5. Pass the membrane through insulin syringe to ensure uniform suspension. • 6. Centrifuge the membrane at 18000 rpm at 4° C. for 20 min. • 7. Reconstitute the pellet in 3 ml of GTPγS buffer and estimate the protein by BCA assay and store the membrane in aliquots of 1000 μg of protein. CB1 Agonist and Antagonist Activity Screening Assay
The test compounds were screened at a final concentration of 1 μM or 300 nM in the absence and presence of 1 μM of WIN 55, 212-2 in the same manner as described in the GTPγS binding assay.
An agonist will stimulate the GTPγS binding over the basal.
An inverse agonist will decrease the basal GTPγS binding and/or produce more than 100% inhibition of the agonist (WIN-55212-2) induced stimulation.
The percent stimulation of GTPγS binding by each test compound at 1 μM or 300 nM concentration in the absence and presence of 1 μM WIN 55, 212-2 was calculated by comparing it with basal specific bound (Basal binding—Non Specific binding) values.

For data set [2], the target named is T1, CB1. The data set is described as follows: Rat CB1 receptor binding using brain membrane, [3H]SR141716A displacement (Protocol I). The settings on record: 1 h. Details: CB1 receptor present in a rat brain membrane preparation; from tissue; host or cells: rat brain membrane; inhibition: dose or concentration left out as unconfirmed.
Where [3] appears, read: hCB2-CHO membranes, [3H]-CP-55,940 displacement.
Where [4] appears, read: 1 h, GTPγS binding over basal, rat cerebellar membrane, tested at 1 uM, read-out: Per Se % Stimulation.
The mark [5] stands for this setting: GTPγS binding, tested at 1 uM in presence of 1 μM WIN 55,212-2, read-out: % Inhibition of WIN-55212-2 induced stimulation.
The mark [6] stands for this setting: rat brain membrane, [3H]SR141716A displacement, read-out: % Displacement Protocol I.

T1 sequence (P20272 whole entry): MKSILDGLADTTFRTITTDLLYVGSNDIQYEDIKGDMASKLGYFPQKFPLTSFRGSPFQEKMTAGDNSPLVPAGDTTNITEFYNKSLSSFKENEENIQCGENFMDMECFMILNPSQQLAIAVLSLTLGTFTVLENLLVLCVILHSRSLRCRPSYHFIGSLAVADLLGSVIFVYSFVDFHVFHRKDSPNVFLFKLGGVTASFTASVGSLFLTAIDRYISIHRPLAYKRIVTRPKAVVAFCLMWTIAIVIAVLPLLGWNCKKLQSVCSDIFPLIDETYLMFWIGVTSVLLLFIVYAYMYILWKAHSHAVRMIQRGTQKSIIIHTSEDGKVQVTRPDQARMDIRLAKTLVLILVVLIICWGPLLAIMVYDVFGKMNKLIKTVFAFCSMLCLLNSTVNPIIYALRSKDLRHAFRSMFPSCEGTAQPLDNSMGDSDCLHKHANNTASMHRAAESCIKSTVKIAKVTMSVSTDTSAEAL
Sequence of hCB2 (P34972 whole entry): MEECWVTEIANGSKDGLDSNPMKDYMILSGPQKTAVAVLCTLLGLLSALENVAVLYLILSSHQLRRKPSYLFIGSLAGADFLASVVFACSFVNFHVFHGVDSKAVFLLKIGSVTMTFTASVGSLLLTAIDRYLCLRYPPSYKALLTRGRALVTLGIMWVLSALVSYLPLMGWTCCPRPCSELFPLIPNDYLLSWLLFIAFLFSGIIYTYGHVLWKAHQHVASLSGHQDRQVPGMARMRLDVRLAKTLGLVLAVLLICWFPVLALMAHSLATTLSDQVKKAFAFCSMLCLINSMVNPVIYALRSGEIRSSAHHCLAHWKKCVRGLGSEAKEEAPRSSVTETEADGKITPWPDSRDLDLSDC

As usually defined, the melting point is the temperature, or range, at which the solid turns liquid. As to `O=C(NNc1ccccc1Cl)c1nn(-c2ccc(Cl)cc2Cl)c2c1C1CC3CC(C1)CC2C3` [Example 174, N(7)-(2-Chlorophenylamino)-5-(2,4-dichlorophenyl)-5,6-diazatetracyclo[7.3.1.1^3,11.0^4,8]tetradeca-4(8),6-diene-7-carboxamide], the melting point came to 110 °C. Also, the inhibition at 0.3 µM on hCB2 (setting [3]) was determined as 22.5%. For the same molecule, at CB1 [1] (setting [4]), the activation at 1 µM is -20.8%. In addition, the inhibition at 1 µM at CB1 [1] (setting [5]) was 75.5%. On CB1 [2] (setting [6]), the inhibition was found to be 76.4%.

As to `Cc1ccc(-n2nc(C(=O)NCc3ccccc3Cl)c3c2C2CC4CC(CC3C4)C2)cc1` [Example 162, N(7)-(2-Chlorobenzyl)-5-(4-methylphenyl)-5,6-diazatetracyclo[7.3.1.1^3,11.0^4,8]tetradeca-4(8),6-diene-7-carboxamide], the melting point fell in the range of 127 to 130 °C. The inhibition at 0.3 µM on hCB2 (setting [3]) amounted to 33.8%. Also, the activation at 0.3 µM at CB1 [1] (1 h, GTPγS binding over basal, rat cerebellar membrane, tested at 300 nM, read-out: Per Se % Stimulation) was -29.2%. Moreover, on CB1 [1] (GTPγS binding, tested at 300 nM in presence of 1 μM WIN 55,212-2, read-out: % Inhibition of WIN-55212-2 induced stimulation), the inhibition at 0.3 µM was determined as 72%. Also, at CB1 [2] (setting [6]), the inhibition was determined as 38.9%.

The molecule `O=C(NNc1ccccc1)c1nn(-c2ccc(Cl)cc2)c2c1C1CC3CC(C1)CC2C3` [Example 121, N(7)-(N′-phenylamino)-5-(4-chlorophenyl)-5,6-diazatetracyclo[7.3.1.1^3,11.0^4,8]tetradeca-4(8),6-diene-7-carboxamide] displayed a melting point of 103 to 105 °C. Moreover, on hCB2 (setting [3]), the inhibition at 0.3 µM came to 29.8%. Besides, the “Per Se % Stimulation” value at CB1 [1] (GTPγS binding over basal, rat cerebellar membrane, tested at 1 uM) is 16.0%. Moreover, the “% Inhibition of WIN-55212-2 induced stimulation” value on CB1 [1] (GTPγS binding, tested at 1 uM in presence of 1 μM WIN 55,212-2) is reported as 81.3%. Moreover, the inhibition at CB1 [2] (setting [6]) amounted to 65.4%.

As to `Cl.O=C(NNc1ccc(F)cc1)c1nn(-c2ccc(Cl)cc2)c2c1C1CC3CC(C1)CC2C3` [Example 131, N(7)-(4-Fluorophenylamino)-5-(4-chlorophenyl)-5,6-diazatetracyclo[7.3.1.1^3,11.0^4,8]tetradeca-4(8),6-diene-7-carboxamide hydrochloride], the melting point came out at 175 °C. Further, the inhibition at 0.3 µM at hCB2 is 10.8%. In addition, the activation at 1 µM at CB1 [1] (setting [4]) is -1.7%. For the same molecule, the inhibition at 1 µM at CB1 [1] (setting [5]) was determined as 86%. Moreover, the inhibition on CB1 [2] (read-out: % Displacement Protocol I, rat brain membrane, [3H]SR141716A displacement) was determined as 85.2%.

For the molecule `O=C(NCc1ccc(F)cc1)c1nn(-c2ccc(Cl)cc2Cl)c2c1C1CCC2C1` (stereo not shown) [Example 246, N(3)-(4-Fluorobenzyl)-1-(2,4-dichlorophenyl)-4,5,6,7-tetrahydro-1H-4,7-methano-indazole-3-carboxamide], the melting point was in the range of 106 to 108 °C. The inhibition at 0.3 µM at hCB2 (setting [3]) is 30.4%. Besides, at CB1 [1] (setting [4]), the activation at 1 µM was found to be 0.7%. For the same molecule, the inhibition at 1 µM at CB1 [1] (setting [5]) was found to be 98.9%. Also, the inhibition at CB1 [2] (setting [6]) is 46%.

For the molecule `O=C(NCc1ccc(F)cc1)c1nn(-c2ccc(Cl)cc2Cl)c2c1C1CC3CC(C1)CC2C3` [Example 172, N(7)-(4-Fluorobenzyl)-5-(2,4-dichlorophenyl)-5,6-diazatetracyclo[7.3.1.1^3,11.0^4,8]tetradeca-4(8),6-diene-7-carboxamide], the melting point lay in the range of 68 to 70 °C. The inhibition at 0.3 µM on hCB2 (setting [3]) is 25.1%. For the same molecule, on CB1 [1] (setting [4]), the activation at 1 µM was -18.3%. For the same molecule, the inhibition at 1 µM at CB1 [1] (setting [5]) turned out to be 115%. Besides, on CB1 [2] (setting [6]), the inhibition came to 59.2%.

In the case of `O=C(NNc1ccccc1Cl)c1nn(-c2ccc(Cl)cc2)c2c1C1CC3CC(C1)CC2C3` [Example 123, N(7)-(2-Chlorophenylamino)-5-(4-chlorophenyl)-5,6-diazatetracyclo[7.3.1.1^3,11.0^4,8]tetradeca-4(8),6-diene-7-carboxamide], the melting point was found to be 155 °C. Also, the inhibition at 0.3 µM on hCB2 (setting [3]) worked out at 47.6%. In addition, at CB1 [1] (setting [4]), the activation at 1 µM came out at 13.5%. Further, on CB1 [1] (setting [5]), the inhibition at 1 µM came to 99.1%. The inhibition on CB1 [2] (setting [6]) stood at 89%.

Molecule `O=C(NNc1cccc(F)c1)c1nn(-c2ccc(Cl)cc2)c2c1C1CCC2C1` (stereo not shown) [Example 233, N(3)-[(3-Fluorophenyl)amino]-1-(4-chlorophenyl)-4,5,6,7-tetrahydro-1H-4,7-methano-indazole-3-carboxamide] had a melting point of 199 °C. At hCB2 (setting [3]), the inhibition at 0.3 µM is 46.2%. Moreover, the activation at 1 µM at CB1 [1] (setting [4]) was -16.3%. Besides, the inhibition at 1 µM at CB1 [1] (setting [5]) is 79.5%. Besides, the inhibition on CB1 [2] (setting [6]) amounted to 73.2%.
